Measurements taken from US11634394B2, “Process for preparation of fungicidally active triazole compounds” (UPL LTD, priority 2018, dated 2023).

Assay: Particle size measurement by Malvern Particle Size Analyzer (Mastersizer-Hydro 2000 S M)
Format: physicochemical
Settings: 1 g in 100 ml dispersant medium; prothioconazole prepared according to Example 3
Experimental: Particle Size Measurement by Malvern Particle Size Analyzer
Sample preparation and method of analysis: 1 g of Prothioconazole was taken in 100 ml dispersant medium. The content was mixed well and analyzed in Malvern Mastersizer-Hydro 2000 S M.

## OC(Cc1ccccc1Cl)(Cn1ncnc1S)C1(Cl)CC1 (centres unmarked) [Prothioconazole, 2-(1-chloro-cyclopropyl)-1-(2-chlorophenyl)-3-(5-mercapto-1,2,4-triazol-1-yl)-propan-2-ol]
  d (0.5) particle size (volume distribution): 202.967 um
  d (0.9) particle size (volume distribution): 367.723 um
